# Assay: Titration of lipophilic capsule contents (placebo) with water until emulsification (robustness)
# Type: physicochemical
# Details: placebo capsule contents after the 5 w/w addition of the emulsion stabilizer; titrated with water at room temperature until clear oily liquid turns into milky turbid emulsion
# Text: The resistance of the contents of gelatin capsules to the water passing inside was quantified by performing a titration experiment. While stirring constantly using a magnetic stirrer at room temperature, the lipophilic contents intended for capsules was gradually titrated with water until the clear oily liquid begins to change into a milky turbid emulsion.
# The robustness of the contents was expressed in the following table as an amount of water, in % w/w, necessary to induce emulsification of the contents.
row,Compound,Robustness (amount of water necessary to induce emulsification of the contents) [weight %]
1,CCCCC/C=C\C/C=C\CCCCCCCC(=O)OCC(O)CO (stereo not drawn) [Glyceryl monolinoleate],3.23
2,CCCCCCCC/C=C\CCCCCCCC(=O)OCC(O)CO (stereo not drawn) [Glyceryl monooleate],4.98
3,Decaglyceryl decaoleate,0.85
4,Decaglyceryl monolaurate,0.84
5,Decaglyceryl monooleate,1.02
6,Diglyceryl monooleate,1.68

# — patent US8673351B2, “Crystallization inhibitor and its use in gelatin capsules” (Ivax Pharmaceuticals S.R.O., priority 2005, dated 2014)
